Laboratory results taken from US20120231140A1, “Organic Compounds” (GIVAUDAN SA, priority 2009, published 2012).

Experiment: Sensory analysis of the umami enhancing thresholds in Model Broth by a panel of trained experts
Assay type: in vivo
Details: Model Broth (MSG, maltodextrin, sodium chloride, yeast extract in water); half-tongue test vs blank broth; geometric mean over panelists; read-out: Umami enhancement threshold concentration in "Model Broth" as calculated for the panel
Description: Sensory analysis of the umami enhancing thresholds of the compounds isolated from the ACN fraction of heated avocado pulp as described in example 1.
Water for sensory evaluation was commercially available table water (“Evian®”, Danone, Wiesbaden, Germany).
“Model Broth” contained monosodium L-glutamate monohydrate (MSG) (1.9 g), maltodextrin (6.375 g), sodium chloride (2.9 g) and yeast extract (2.1 g), in 1000 mL of water.
25 mg of each of the compounds listed hereinabove were separately dissolved in 0.2 mL ethanol, then 20.0 mL of model broth was added to each sample. Each sample was then diluted with model broth in 1:1(v/v) steps, until sets of nine solutions with dilution factors of 1, 2, 4, 8, 16, 32, 64, 128, and […] were obtained for each compound.
The samples were evaluated by a panel of trained experts.
The following sensorial evaluation procedure was followed for each set of samples containing a different compound of formula (I).
In a way that avoided any mixing, 1 mL of one of the sample solutions was applied to the left part of each panelists tongue, and 1 mL of Model Broth as a blank value/neutral reference was applied to the right part of the tongue. The panelists were asked to compare the taste on both halves of their tongues. After 5 to 30 seconds the panelists were then asked to rub their tongues against the roof of their mouths. Panelists were then asked if they could distinguish the sample from the blank (Model Broth).
After each sample, the oral cavity was rinsed with water and a break of 5 to 10 minutes was observed until the stimulus completely disappeared.
Multiple sample solutions were tested in this way, one after the other in ascending order of concentration, to determine the weakest concentration at which the compounds of formula (I) enhanced the umami taste of the model broth.
The calculation of the umami enhancement threshold was then performed as described in the literature (ASU: L 00.90-9, 1999), via the geometric mean.
By “umami enhancement threshold” is meant, the mean concentration at which a compound enhances the umami taste of a model broth.
For each panelist, the following formula was used to determine the mean umami enhancement threshold:
E=√{square root over (ce×ce−1)}
wherein ce is the concentration (in ppm) of the weakest concentration identified as having an umami enhancing effect, Ce−1 is the concentration (in ppm) of the anteceding sample solution and E is the mean umami enhancement threshold.
To calculate the mean umami enhancement threshold for the panel, the following formula was used: […]
Wherein n is the number of panelists, Ei is the product of the umami enhancement thresholds calculated for each panelist as specified above.
The panel calculated mean umami enhancement threshold for each compound is indicated in table1 below.
`CCCCCC=CCC=CCCCCCCCC(O)CC(O)COC(C)=O` (centres unmarked) [1-acetoxy-2,4-dihydroxy-n-heneicosa-12,15-dien] gave a minimal effective concentration of 0.7 µg/mL. For `C=CCCCCCCCCCCCC(O)CC(O)COC(C)=O` (centres unmarked) [1-acetoxy-2,4-dihydroxy-n-heptadeca-16-en], the minimal effective concentration was 2.8 µg/mL. `C#CCCCCCCCCCCCC(O)CC(O)COC(C)=O` (centres unmarked) [1-acetoxy-2,4-dihydroxy-n-heptadeca-16-yne] gave a minimal effective concentration of 1.5 µg/mL. `C=CCCCCCCCCCCCC(=O)CC(O)COC(C)=O` (centres unmarked) [1-acetoxy-2-hydroxy-4-keto-n-heptadeca-16-en] showed a minimal effective concentration of 3.5 µg/mL. `CCCCCCCCCCCCCC(=O)CC(O)COC(C)=O` (centres unmarked) [1-acetoxy-2-hydroxy-4-keto-n-heptadecane] showed a minimal effective concentration of 5.6 µg/mL. `CCCCCC=CCCCCCCCC(=O)CC(O)COC(C)=O` (centres unmarked) [1-acetoxy-2-hydroxy-4-keto-n-octadeca-12-en] showed a minimal effective concentration of 1.8 µg/mL. `CCCCCC=CCC=CCCCCCC=CC(=O)CC(O)COC(C)=O` (centres unmarked) [1-acetoxy-2-hydroxy-4-oxo-n-heneicosa-5,12,15-trien] gave a minimal effective concentration of 0.7 µg/mL. `CCCCCC=CCC=CCCCCCCCC(=O)CC(O)COC(C)=O` (centres unmarked) [1-acetoxy-2-hydroxy-4-oxo-n-heneicosa-12,15-dien] gave a minimal effective concentration of 3.2 µg/mL.
